According to PubChem BioAssay AID1963858 (Molecular Pharmacology Branch, DTP, NCI, 2024):

Tested on: HOP-62 multicell spheroids with HUVEC/MSC, viability
Experiment: Anticancer human tumor HOP-62 cell line growth inhibition [KRAS2];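 further: viability read after a week of compound exposure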;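 on viability, T/C: 100% = DMSO vehicle-treated spheroids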
Details: for IC50: curve of first compound; for viability, T/C: stronger effect = lower value
Outline: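 KRAS-mutant tumor cells were grown as spheroids with HUVEC endothelial cells and human MSCs as stroma. Targeted agents were tested alone and with KRAS pathway inhibitors. Doses started at or near clinical Cmax, or 10 microM, descending half-log.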

[1] = second compound 0.1 µM, first compound 0.01 µM
[2] = second compound 0.1 µM, first compound 0.0316 µM
[3] = second compound 0.1 µM, first compound 0.1 µM
[4] = second compound 0.316 µM, first compound 0.01 µM
[5] = second compound 0.316 µM, first compound 0.0316 µM
[6] = second compound 0.316 µM, first compound 0.1 µM
[7] = second compound 1 µM, first compound 0.01 µM
[8] = second compound 1 µM, first compound 0.0316 µM
[9] = second compound 1 µM, first compound 0.1 µM
[10] = second compound 3.16 µM, first compound 0.01 µM
[11] = second compound 3.16 µM, first compound 0.0316 µM
[12] = second compound 3.16 µM, first compound 0.1 µM
[13] = second compound 10 µM, first compound 0.01 µM
[14] = second compound 10 µM, first compound 0.0316 µM
[15] = second compound 10 µM, first compound 0.1 µM
[16] = second compound 0.1 µM, first compound 0.316 µM
[17] = second compound 0.1 µM, first compound 1 µM
[18] = second compound 0.1 µM, first compound 3.16 µM
[19] = second compound 0.316 µM, first compound 0.316 µM
[20] = second compound 0.316 µM, first compound 1 µM
[21] = second compound 0.316 µM, first compound 3.16 µM
[22] = second compound 1 µM, first compound 0.316 µM
[23] = second compound 1 µM, first compound 1 µM
[24] = second compound 1 µM, first compound 3.16 µM
[25] = second compound 3.16 µM, first compound 0.316 µM
[26] = second compound 3.16 µM, first compound 1 µM
[27] = second compound 3.16 µM, first compound 3.16 µM
[28] = second compound 10 µM, first compound 0.316 µM
[29] = second compound 10 µM, first compound 1 µM
[30] = second compound 10 µM, first compound 3.16 µM
[31] = second compound 0.1 µM, first compound 10 µM
[32] = second compound 0.316 µM, first compound 10 µM
[33] = second compound 1 µM, first compound 10 µM
[34] = second compound 3.16 µM, first compound 10 µM

SMILES	IC50 (second compound 0.1 µM) [nM]	IC50 (second compound 0.316 µM) [nM]	IC50 (second compound 1 µM) [nM]	IC50 (second compound 3.16 µM) [nM]	IC50 (second compound 10 µM) [nM]	viability, T/C [2] [%]	viability, T/C [3] [%]	viability, T/C [5] [%]	viability, T/C [6] [%]	viability, T/C [8] [%]	viability, T/C [9] [%]	viability, T/C [11] [%]	viability, T/C [12] [%]	viability, T/C [14] [%]	viability, T/C [15] [%]	viability, T/C [16] [%]	viability, T/C [17] [%]	viability, T/C [18] [%]	viability, T/C [19] [%]	viability, T/C [20] [%]	further results
Cn1ncnc1[C@H]1c2n[nH]c(=O)c3cc(F)cc(c23)N[C@@H]1c1ccc(F)cc1 + CC1OCC2(CCN(c3cnc(Sc4ccnc(N)c4Cl)c(N)n3)CC2)C1N	> 100	> 100	1.39	< 0.316	< 0.316	80.2	73	72.5	52.6	32.7	37.9	17.5	22.5	24.1	21.1						viability, T/C (second compound 0.1 µM, first compound 0.000316 µM): 88.7%; viability, T/C (second compound 0.1 µM, first compound 0.001 µM): 97.9%; viability, T/C (second compound 0.1 µM, first compound 0.00316 µM): 94.1%; viability, T/C [1]: 87.1%; viability, T/C (second compound 0.316 µM, first compound 0.000316 µM): 86.5%; viability, T/C (second compound 0.316 µM, first compound 0.001 µM): 66.8%; viability, T/C (second compound 0.316 µM, first compound 0.00316 µM): 62.7%; viability, T/C [4]: 69.3%; viability, T/C (second compound 1 µM, first compound 0.000316 µM): 65.2%; viability, T/C (second compound 1 µM, first compound 0.001 µM): 56.9%; viability, T/C (second compound 1 µM, first compound 0.00316 µM): 29.8%; viability, T/C [7]: 31.4%; viability, T/C (second compound 3.16 µM, first compound 0.000316 µM): 40.6%; viability, T/C (second compound 3.16 µM, first compound 0.001 µM): 31.7%; viability, T/C (second compound 3.16 µM, first compound 0.00316 µM): 37%; viability, T/C [10]: 23.7%; viability, T/C (second compound 10 µM, first compound 0.000316 µM): 36.9%; viability, T/C (second compound 10 µM, first compound 0.001 µM): 30.3%; viability, T/C (second compound 10 µM, first compound 0.00316 µM): 31%; viability, T/C [13]: 27.5%
CC1COCCN1c1cc(-c2ccnn2C)c2ccnc(-c3ccn[nH]3)c2n1 (stereo not given) + COc1cc2nc(C)nc(NC(C)c3cc(N)cc(C(F)(F)F)c3)c2cc1OC1CCOC1	< 10	68.6	54.2	22.8	10.9	6.78	7.26	83.5	33.9	65.8	31.4	38.2	22.9	36	27.4	6.53	8.4	10.7	16.5	13.4	viability, T/C [1]: 8.83%; viability, T/C [4]: 125%; viability, T/C [21]: 14.4%; viability, T/C [7]: 120%; viability, T/C [22]: 19.6%; viability, T/C [23]: 12.5%; viability, T/C [24]: 11.2%; viability, T/C [10]: 77.4%; viability, T/C [25]: 13.9%; viability, T/C [26]: 9.69%; viability, T/C [27]: 10.8%; viability, T/C [13]: 52.1%; viability, T/C [28]: 22.3%; viability, T/C [29]: 15.8%; viability, T/C [30]: 12.9%
CC1OCC2(CCN(c3cnc(Sc4ccnc(N)c4Cl)c(N)n3)CC2)C1N (stereo not given) + C=CC(=O)N1CCN(c2nc(OCC3CCCN3C)nc3c2CCN(c2cccc4cccc(C)c24)C3)CC1CC#N	36.8	< 31.6	< 31.6	< 31.6		53.5	29.1	40	30.7	24	16	4.76	1.76			19.9	12.8	11.5	13.9	10.5	IC50 (second compound 0.0316 µM): 69.7 nM; viability, T/C (second compound 0.0316 µM, first compound 0.0316 µM): 54.3%; viability, T/C (second compound 0.0316 µM, first compound 0.1 µM): 49.1%; viability, T/C (second compound 0.0316 µM, first compound 0.316 µM): 27%; viability, T/C (second compound 0.0316 µM, first compound 1 µM): 19.5%; viability, T/C (second compound 0.0316 µM, first compound 3.16 µM): 11.9%; viability, T/C (second compound 0.0316 µM, first compound 10 µM): 12.7%; viability, T/C [31]: 12.2%; viability, T/C [21]: 10.2%; viability, T/C [32]: 10.6%; viability, T/C [22]: 11.8%; viability, T/C [23]: 8.98%; viability, T/C [24]: 7.63%; viability, T/C [33]: 7.61%; viability, T/C [25]: 1.12%; viability, T/C [26]: 0.88%; viability, T/C [27]: 0.72%; viability, T/C [34]: 0.51%
COc1cc2nccc(Oc3ccc(NC(=O)C4(C(=O)Nc5ccc(F)cc5)CC4)cc3)c2cc1OC + COc1cc2nc(C)nc(NC(C)c3cc(N)cc(C(F)(F)F)c3)c2cc1OC1CCOC1	> 10000	> 10000	> 10000	901	235	100	113	89.4	114	86.8	92.2	71.8	94.9	54.9	49.1	113	80.8	63.8	126	85.8	viability, T/C [31]: 123%; viability, T/C [21]: 59.4%; viability, T/C [32]: 114%; viability, T/C [22]: 101%; viability, T/C [23]: 55.9%; viability, T/C [24]: 47%; viability, T/C [33]: 97.5%; viability, T/C [25]: 81.6%; viability, T/C [26]: 46%; viability, T/C [27]: 0.59%; viability, T/C [34]: 94%; viability, T/C [28]: 49.3%; viability, T/C [29]: 24.5%; viability, T/C [30]: 0.58%; viability, T/C (second compound 10 µM, first compound 10 µM): 73%
